Data on 2 compounds can be found in PMC9840614, “A gain-of-function TPC2 variant R210C increases affinity to PI(3,5)P2 and causes lysosome acidification and hypopigmentation” (Nature Communications, 2023).

Each structure is given as a SMILES string.

Holding throughout (assay type): cell-based
Experiment [1] deals with T1, Two Pore Channel 2 (TPC2), R210C (Homo sapiens, UniProt Q8NHX9, R210C).
T1 construct: gene TPCN2; EGFP-TPC2 R210C
In words: whole-endolysosome patch clamp, HEK293 vacuoles, […]. A general note: In patch-clamp work, channel activity is measured electrically.

The target of experiment [2] is T2, Two Pore Channel 2 (TPC2), R210C (Homo sapiens, UniProt Q8NHX9, L11A/L12A/R210C).
T2 construct: gene TPCN2; EGFP-tagged plasma membrane-targeted TPC2 L11A/L12A
In words: inside-out patch clamp, HEK293, concentration response.

Experiment [3] addresses T3, Two Pore Channel 2 (TPC2) (Homo sapiens, UniProt Q8NHX9, L11A/L12A).
T3 construct: gene TPCN2; EGFP-tagged plasma membrane-targeted TPC2 L11A/L12A
Described as above.

In experiment [4] the target is T4, Two Pore Channel 2 (TPC2), R210A (Homo sapiens, UniProt Q8NHX9, R210A).
T4 construct: gene TPCN2
In words: channel activation EC50 (n = […], data not shown in figures).

T2 sequence (Q8NHX9 whole entry L11A/L12A/R210C): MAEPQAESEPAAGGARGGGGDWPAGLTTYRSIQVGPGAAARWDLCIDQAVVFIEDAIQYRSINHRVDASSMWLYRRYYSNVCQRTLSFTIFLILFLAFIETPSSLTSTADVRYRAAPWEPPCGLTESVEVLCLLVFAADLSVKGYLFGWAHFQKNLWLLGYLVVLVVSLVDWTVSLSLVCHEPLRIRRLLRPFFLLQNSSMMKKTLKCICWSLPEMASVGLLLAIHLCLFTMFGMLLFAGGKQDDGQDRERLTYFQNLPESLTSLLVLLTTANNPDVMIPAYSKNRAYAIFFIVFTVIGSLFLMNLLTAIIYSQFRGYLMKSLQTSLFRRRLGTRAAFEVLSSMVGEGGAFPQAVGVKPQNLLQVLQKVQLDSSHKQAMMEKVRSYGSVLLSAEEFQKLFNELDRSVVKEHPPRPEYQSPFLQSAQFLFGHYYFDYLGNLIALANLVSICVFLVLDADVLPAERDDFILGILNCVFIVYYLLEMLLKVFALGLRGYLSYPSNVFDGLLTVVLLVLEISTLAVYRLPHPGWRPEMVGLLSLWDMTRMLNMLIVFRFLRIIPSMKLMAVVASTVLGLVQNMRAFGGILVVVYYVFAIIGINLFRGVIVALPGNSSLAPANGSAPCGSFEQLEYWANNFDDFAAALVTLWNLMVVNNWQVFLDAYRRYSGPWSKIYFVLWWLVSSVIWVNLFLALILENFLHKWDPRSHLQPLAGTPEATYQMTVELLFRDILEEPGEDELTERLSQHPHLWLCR
T1 sequence (Q8NHX9 whole entry R210C): as the sequence (Q8NHX9 whole entry L11A/L12A/R210C) above, with A11L, A12L counted along it
T3 sequence (Q8NHX9 whole entry L11A/L12A): as the sequence (Q8NHX9 whole entry L11A/L12A/R210C) above, with C210R counted along it
T4 sequence (Q8NHX9 whole entry R210A): as the sequence (Q8NHX9 whole entry L11A/L12A/R210C) above, with A11L, A12L, C210A counted along it

Take `COc1ccc([C@H]2N[C@H](C(=O)O)Cc3c2[nH]c2ccccc32)cc1CN1CCN(c2ccccc2F)CC1` [Ned-19]: the “whole-endolysosome patch clamp, HEK293 vacuoles, 100 nM” value in experiment [1] is on record as “Ned-19 inhibited the R210C currents at both potentials with fast kinetics”.

With `CCCCCCCC(=O)OC[C@H](COP(=O)(O)O[C@@H]1[C@H](O)[C@H](OP(=O)(O)O)[C@@H](O)[C@H](OP(=O)(O)O)[C@H]1O)OC(=O)CCCCCCC` [PI(3,5)P2-diC8], the concentration for a half-maximal effect (EC50) came out at 2.27 ± 0.25 nM in experiment [2], 209 ± 19.2 nM in experiment [3] and 19.4 ± 0.74 nM in experiment [4].

By EC50 is commonly meant the concentration at which the effect is half-maximal. Low values mean a more potent agent, high ones a less potent agent.
